Experimental data: ChEMBL document CHEMBL1201862, “PubChem BioAssay data set” (2004)
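A five-concentration, 48-hour dose response in 96-well plates underlies each endpoint, interpolated linearly between surrounding concentrations. GI50: concentration for 50% inhibition of growth.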 Calls of active or inactive are those of the source. No stated cut-off is given here; in the data, active = GI50 up to about 1.1 µM and inactive = higher.

What was measured:
Assay in all cases: DTP human tumour cell line panel, 48 h
OVCAR-4 = system: OVCAR-4
NCI-H226 = system: NCI-H226
HT-29 = system: HT-29
KM12 = system: KM12
OVCAR-8 = system: OVCAR-8
SF-539 = system: SF-539
SK-OV-3 = system: SK-OV-3
SNB-19 = system: SNB-19
NCI-H522 = system: NCI-H522
SK-MEL-2 = system: SK-MEL-2
OVCAR-5 = system: OVCAR-5
786-0 = system: 786-0
MDA-N = system: MDA-N
MCF7 = system: MCF7
OVCAR-3 = system: OVCAR-3
CAKI-1 = system: CAKI-1
K562 = system: K562
MDA-MB-435 = system: MDA-MB-435
HOP-62 = system: HOP-62
BT-549 = system: BT-549

SMILES	GI50 (OVCAR-4)	GI50 (NCI-H226)	GI50 (HT-29)	GI50 (KM12)	GI50 (OVCAR-8)	GI50 (SF-539)	GI50 (SK-OV-3)	GI50 (SNB-19)	GI50 (NCI-H522)	GI50 (SK-MEL-2)	GI50 (OVCAR-5)	GI50 (786-0)	GI50 (MDA-N)	GI50 (MCF7)	GI50 (OVCAR-3)	GI50 (CAKI-1)	GI50 (K562)	GI50 (MDA-MB-435)	GI50 (HOP-62)	GI50 (BT-549)
Cc1c(C(=O)O)n2c(S)nnc2c2ccccc12	> 100 µM (inactive)	> 100 µM (inactive)	> 100 µM (inactive)	> 100 µM (inactive)	> 100 µM (inactive)	> 100 µM (inactive)	> 100 µM (inactive)	> 100 µM (inactive)	> 100 µM (inactive)	> 100 µM (inactive)	> 100 µM (inactive)	> 100 µM (inactive)	> 100 µM (inactive)	> 100 µM (inactive)	> 100 µM (inactive)	> 100 µM (inactive)	> 100 µM (inactive)	> 100 µM (inactive)	> 100 µM (inactive)	
COC(=O)C1=C(C)NC(C)=C(C(=O)OC)C1c1nc2sccn2c1[N+](=O)[O-]	> 100 µM (inactive)	> 100 µM (inactive)		> 100 µM (inactive)	79.4 µM (inactive)	77.3 µM (inactive)	> 100 µM (inactive)	> 100 µM (inactive)		> 100 µM (inactive)	> 100 µM (inactive)	> 100 µM (inactive)		> 100 µM (inactive)	> 100 µM (inactive)	> 100 µM (inactive)	> 100 µM (inactive)	> 100 µM (inactive)	> 100 µM (inactive)	> 100 µM (inactive)
O=C(NC(O)(C(F)(F)F)C(F)(F)F)c1ccccc1	> 100 µM (inactive)	51.6 µM (inactive)	> 100 µM (inactive)	> 100 µM (inactive)	> 100 µM (inactive)	> 100 µM (inactive)	> 100 µM (inactive)	> 100 µM (inactive)	> 100 µM (inactive)	> 100 µM (inactive)	> 100 µM (inactive)	> 100 µM (inactive)	> 100 µM (inactive)	> 100 µM (inactive)	> 100 µM (inactive)	> 100 µM (inactive)	> 100 µM (inactive)	> 100 µM (inactive)	> 100 µM (inactive)	
CC(C)OC(=O)C1(C(C)C)CCc2ccc(C(=O)CCC(=O)O)cc21 (stereo unspecified)	> 100 µM (inactive)	> 100 µM (inactive)	> 100 µM (inactive)	> 100 µM (inactive)	> 100 µM (inactive)	> 100 µM (inactive)	> 100 µM (inactive)	> 100 µM (inactive)	> 100 µM (inactive)	> 100 µM (inactive)	> 100 µM (inactive)	> 100 µM (inactive)	> 100 µM (inactive)	> 100 µM (inactive)		> 100 µM (inactive)	> 100 µM (inactive)		> 100 µM (inactive)	> 100 µM (inactive)
CCOC(=O)C(C#N)C1=CC(=O)C(=O)c2ccc(O)cc21 (stereo unspecified)	58.9 µM (inactive)	41.2 µM (inactive)	> 100 µM (inactive)	> 100 µM (inactive)	44.7 µM (inactive)	55.3 µM (inactive)	> 100 µM (inactive)	> 100 µM (inactive)	26.9 µM (inactive)	23.2 µM (inactive)	> 100 µM (inactive)	> 100 µM (inactive)	18.5 µM (inactive)	> 100 µM (inactive)	64 µM (inactive)	> 100 µM (inactive)	> 100 µM (inactive)	21.1 µM (inactive)	> 100 µM (inactive)	
C[C@H]1S[C@H](c2c(Cl)cccc2Cl)N2Cc3ccccc3N=C12	29.8 µM (inactive)			12 µM (inactive)		14.7 µM (inactive)	17.7 µM (inactive)	10.3 µM (inactive)		10.1 µM (inactive)	12 µM (inactive)	8.49 µM (inactive)	21 µM (inactive)	14.2 µM (inactive)	11.4 µM (inactive)	40.6 µM (inactive)	25.7 µM (inactive)	14.3 µM (inactive)	14 µM (inactive)	28.2 µM (inactive)
CC(C)(NC1=NCCO1)c1ccccc1	> 100 µM (inactive)	> 100 µM (inactive)	> 100 µM (inactive)	> 100 µM (inactive)	> 100 µM (inactive)	> 100 µM (inactive)	> 100 µM (inactive)	43.4 µM (inactive)	> 100 µM (inactive)	> 100 µM (inactive)	> 100 µM (inactive)	> 100 µM (inactive)	> 100 µM (inactive)	> 100 µM (inactive)	> 100 µM (inactive)	> 100 µM (inactive)		> 100 µM (inactive)	> 100 µM (inactive)	
CN(Cc1cnc2nc(N)nc(N)c2n1)c1ccc(C(=O)NC23CC4CC(CC(C4)C2)C3)cc1		13.1 µM (inactive)		12.3 µM (inactive)	7.35 µM (inactive)		15.2 µM (inactive)	6.52 µM (inactive)		11.5 µM (inactive)	12.2 µM (inactive)	7.24 µM (inactive)		10.9 µM (inactive)	16.9 µM (inactive)	12 µM (inactive)	1.06 µM (active)	10.5 µM (inactive)	12.6 µM (inactive)	11.8 µM (inactive)
